Experiments:
mouse iNKT cells = experiment: Mouse iNKT cells expansion in vitro in spleen cell cultures (flow cytometry, TCR/NK1.1); assay type: cell-based
Description: The compounds were assayed at a final concentration of 1 μg/mL in complete medium with 1% of methanol (MeOH), while the αGalCer (αGC) was used at 0.2 μg/mL. The cell cultures were labeled with anti-NK1-PE and anti-TCR-FITC specific antibodies. The percentages of NKT cells (double positive cells) were calculated within the population of electronically selected T cells.
First, the ability to induce the specific proliferation of mouse iNKT was determined by culture experiments in vitro. For that, spleen cells derived from female B57Bl/6 mice between 10 and 20 weeks were isolated and the red blood cells were removed by hypotonic lysis. The spleen cells are distributed in 96 U-well plates, between 100,000 and 500,000 cells per well, and incubated in the presence of each of the compounds 1a, 1b, 2b, 3a, 3b and 4b at a final concentration of 1 μg/mL in RPMI-1640 growth medium, 10% fetal serum, […], 1% methanol. […] The culture was analyzed at day 5 or 6 by flow cytometry, using TCR and NK1.1 specific antibodies. In the presence of the control αGalCer:
(§1) Mouse C57BL/6 spleen cells are obtained by isolation of the spleen of female mice from 8 to 12 weeks of age, according to protocols approved by the Animal and Human Research Ethics Committee of the Autonomous University of Barcelona. The spleens are disaggregated with the plunger of a syringe in […] in a laminar flow hood, removing the red blood cells with lysis buffer (Sigma-Aldrich). 5×10^5 cells are placed in the wells of 96 U-well plates, and incubated with 100 ng/mL of α-GalCer, OCH, or 1 μg/mL of the compounds 1a, 1b, 2b, 3a, 3b, and 4b in RPMI-1640 medium supplemented with 10% fetal calf serum (FCS) (Labclinics), 50 μM 2-mercaptoethanol, 2 mM L-glutamine and 1% methanol (non-toxic concentration for the cells), and grown at 37° C. in a 5% CO2 humidified atmosphere. 25 U/mL of recombinant human interleukin 2 are added at day 2 of culture.
The spleen cells cultures grown in the indicated conditions are analyzed by flow cytometry in a FACS Calibur (Beckton Dickinson Bioscience) for quantifying the levels of proliferation of the iNKTs after incubation with the compounds 1a, 1b, 2b, 3a, 3b, and 4b. The stimulated spleen cultures are washed and preincubated with 50 μl of staining medium (PBS with 2% FCS) with anti-CD16 (clone 2.4G2) for 20 min in ice. Subsequently the cells are washed and resuspended in staining medium with mouse anti-TCR antibody conjugated to fluorescein isothiocyanate (FITC) (clone H57-597, BD-Pharmingen) and anti-NK1.1 conjugated to avidin (clone PK-136, BD-Pharmingen) for 30 min in ice. […] The samples are analyzed in the flow cytometer (FACSCalibur) and the data are processed using the program CellQuest (BD Bioscience).

[1] = tested on: IFNγ production by iNKT cells; experiment: IFNγ production in mouse spleen cell cultures, dose-response (ELISA); assay type: cell-based; conditions: dose-response (FIG. 3a)
Text: (§2) Quantifying of the production of IFNγ (FIG. 3A) and IL-4 (FIG. 3B) after the stimulation in vitro of cultures of mouse spleen cells containing lipidic agonists of iNKT cells in a dose-response assay.
(§3) The CD1d glycolipidic ligands induce a deviation in the production of cytokines by iNKT cells to Th1 or Th2, depending on its ability to be presented by CD1d, and its structural characteristics recognized by the TCR. For quantifying more precisely the immunostimulating ability of the compound 4b and determining if it induces a deviation in the iNKT response, its ability to induce the production of IFNγ and IL-4 is titrated in the cell cultures using different concentrations, and comparing the same with the two prototypical ligands, αGalCer and OCH (dissolved in MeOH), that have been described as inducers of a Th1 and Th2 response, respectively.
as §1
(§4) For the determinations of IL-4 and IFNγ, culture supernatants are taken at day 4 or day 7, and stored at −70° C. or used immediately in ELISA assays (eBioscience) for quantifying the cytokines, following the manufacturer's instructions. […] The statistical significance of the results is analyzed using a t-Student test, considering significant differences with p<0.01. […]

[2] = tested on: IL-4 production by iNKT cells; experiment: IL-4 production in mouse spleen cell cultures, dose-response (ELISA); assay type: cell-based; conditions: dose-response (FIG. 3b)
Text: as §2
as §3, with “respectively. […]” for “respectively.”
as §4

iNKT cells = experiment: Th1/Th2 deviation of the iNKT response (IFNγ versus IL-4 production); assay type: cell-based, mouse; conditions: for type of cytokine response (Th1/Th2 profile): IL-4 versus IFNγ induction in mouse spleen cell cultures; for IFNγ/IL-4 ratio: cytokines in mouse spleen cell culture supernatants (ELISA)
Text: as §3, §1
For the determinations of IL-4 and IFNγ, culture supernatants are taken at day 4 or day 7, and stored at −70° C. or used immediately in ELISA assays (eBioscience) for quantifying the cytokines, following the manufacturer's instructions. Standard curves are generated with the recombinant cytokines included in the kit. The statistical significance of the results is analyzed using a t-Student test, considering significant differences with p<0.01. The compounds 1a, 1b, 2b, 3a, 3b, and 4b are resuspended in 100% methanol or 100% dimethyl sulfoxide at a concentration of 1 mg/mL, and a 1/10 use dilution in PBS is prepared, with a final concentration of 100 μg/mL. The compounds are heated at 56° C. for 10-30 min and sonicated, before being diluted in complete growth medium, with a final concentration of 1% vehicle in the cellular assay.

[3] = compound 1 μg/mL, 1% methanol, IL-2 at day 2, analysed day 5 or 6

## CCCCCCCCCCCCCCCCCCCCCCCCCC(=O)N[C@@H](CNC1[C@H](O)[C@H](O)C(O)[C@H](O)[C@H]1O)[C@H](O)[C@H](O)CCCCCCCCCCCCCC (some centres unmarked) [Compound 3a]
Mouse iNKT cells; [3]
  expansion of iNKTs: approximately 2 times

## CCCCCCCCCCCCCC[C@@H](O)[C@@H](O)[C@H](CNC1[C@H](O)[C@H](O)C(O)[C@H](O)[C@H]1O)NC(=O)CCCCCCC (some centres unmarked) [Compound 3b]
Mouse iNKT cells; [3]
  expansion of iNKTs: approximately 2 times

## CCCCCCCCCCCCCCCCCCCCCCCCCC(=O)N[C@@H](CN[C@H]1C[C@H](O)[C@@H](O)[C@H](O)[C@H]1O)[C@H](O)[C@H](O)CCCCCCCCCCCCCC [Compound 4b, (2S,3S,4R)-2-hexacosanamide-1-(1′S,2′S,3′R,4′R,5′S)-2,3,4,5,-tetrahydroxycyclohexylaminooctadecane-3,4-diol]
[1]
  concentration at which production of IFNγ is induced: 333 ng/mL
  concentration at which the maximal IFNγ response plateau is reached: 1 µg/mL
  magnitude of the maximal IFNγ response compared with α-GalCer: lower magnitude
Mouse iNKT cells; compound 1 μg/mL, increase from 1.2% baseline, day 5 or 6 (FIG. 1)
  NKT cells as percentage of the T cells after incubation: 6.2%
[2]
  concentration at which induction of IL-4 is maintained with high efficiency: 100 ng/mL
  concentration at which induction of IL-4 is still significant: 33 ng/mL
iNKT cells
  type of cytokine response (Th1/Th2 profile): preferably Th2-type response
  IFNγ/IL-4 ratio: 2
iNKT cells; mouse spleen cell cultures, dose-response
  response compared with the Th2 response prototype OCH: lower response

## CCCCCCCCCCCCCCCCCCCCCCCCCC(=O)N[C@@H](CO[C@H]1O[C@H](CO)[C@H](O)[C@H](O)[C@H]1O)[C@H](O)[C@H](O)CCCCCCCCCCCCCC [αGalCer, α-galactosylceramide, reference compound]
Mouse iNKT cells; αGalCer control (0.2 μg/mL per FIG. 1), 1% methanol, IL-2 at day 2, analysed day 5 or 6
  expansion of the population of NKT cells over the baseline conditions: more than 5 times
iNKT cells
  type of cytokine response (Th1/Th2 profile): high Th1 profile
  IFNγ/IL-4 ratio: 10
